The subject of the assay is CD2F1 mice, L1210 leukemia ip, survival T/C. Nature of the assay: NCI In Vivo Anticancer Drug Screen. Data for tumor model L1210 Leukemia (intraperitoneal) in CD2F1 (CDF1) mice. To be noted: higher = longer survival. In short, it runs like this:
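Ratio T/C, where T is the treated-group value and C the vehicle-dosed control value, from mice implanted with a transplantable tumor.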

The mark [1] stands for this setting: endpoint: mean survival time, dose: 100.0 mg/kg/injection, schedule: Q01DX001 (ip), vehicle: saline with Tween-80.
Where [2] appears, read: endpoint: mean survival time, dose: 100.0 mg/kg/injection, schedule: Q01DX009 (ip), vehicle: saline with Tween-80.
Setting [3] is: endpoint: mean survival time, dose: 200.0 mg/kg/injection, schedule: Q01DX001 (ip), vehicle: saline with Tween-80.
The mark [4] stands for this setting: endpoint: mean survival time, dose: 200.0 mg/kg/injection, schedule: Q01DX009 (ip), vehicle: saline with Tween-80.
The mark [5] stands for this setting: endpoint: mean survival time, dose: 400.0 mg/kg/injection, schedule: Q01DX001 (ip), vehicle: saline with Tween-80.
Where [6] appears, read: endpoint: mean survival time, dose: 400.0 mg/kg/injection, schedule: Q01DX009 (ip), vehicle: saline with Tween-80.
Setting [7] is: endpoint: mean survival time, dose: 100.0 mg/kg/injection, schedule: Q04DX002 (ip), vehicle: saline with Tween-80.
The mark [8] stands for this setting: endpoint: mean survival time, dose: 25.0 mg/kg/injection, schedule: Q01DX009 (ip), vehicle: saline with Tween-80.
[9] abbreviates: endpoint: mean survival time, dose: 25.0 mg/kg/injection, schedule: Q04DX003 (ip), vehicle: saline with Tween-80.
Setting [10] is: endpoint: mean survival time, dose: 50.0 mg/kg/injection, schedule: Q01DX009 (ip), vehicle: saline with Tween-80.
Where [11] appears, read: endpoint: mean survival time, dose: 50.0 mg/kg/injection, schedule: Q04DX003 (ip), vehicle: saline with Tween-80.
[12] abbreviates: endpoint: mean survival time, dose: 100.0 mg/kg/injection, schedule: Q01DX001 (ip), vehicle: saline.
Setting [13] is: endpoint: mean survival time, dose: 100.0 mg/kg/injection, schedule: Q04DX003 (ip), vehicle: saline with Tween-80.
Setting [14] is: endpoint: mean survival time, dose: 200.0 mg/kg/injection, schedule: Q04DX003 (ip), vehicle: saline with Tween-80.
Setting [15] is: endpoint: mean survival time, dose: 400.0 mg/kg/injection, schedule: Q04DX003 (ip), vehicle: saline with Tween-80.

The structures appear in SMILES notation. “And” between values parts separate entries of the source, which are not always exact repeats. Equal entries are not always repeated. Inconclusive results and toxic doses are left out.

For `COC(=O)C12CCC(C)(C)CC1C1=CCC3C4(C)CCC(OC(C)=O)CC4CCC3(C)C1(C)CC2` (configuration not stated), the T/C reads like this: under setting [1], 93 % of control; under setting [2], 100 % of control; under setting [3], 92 % of control; under setting [4], 100 % of control; under setting [5], 97 % of control; under setting [6], 109 % of control.

As to `O=c1cc(Nc2cccc(Cl)c2Cl)[nH]c(=O)[nH]1`, the T/C under setting [1] was 93 % of control and 97 % of control; the T/C under setting [7] is 118 % of control and 91 % of control; the T/C under setting [3] was 97 % of control and 98 % of control; the T/C (endpoint: mean survival time, dose: 200.0 mg/kg/injection, schedule: Q04DX002 (ip), vehicle: saline with Tween-80) was 90 % of control and 92 % of control; the T/C under setting [5] was 95 % of control and 97 % of control; the T/C (endpoint: mean survival time, dose: 400.0 mg/kg/injection, schedule: Q04DX002 (ip), vehicle: saline with Tween-80) was 91 % of control and 100 % of control.

For the compound `Cc1nc2ccccc2cc1C[N+]12CN3CN(CN(C3)C1)C2`, the T/C is 106 % of control under setting [8]; 101 % of control under setting [9]; 113 % of control under setting [10]; 103 % of control under setting [11]; 109 % of control under setting [12].

Consider `CCCCCCCCCCCC(CCCC)CCCCCCCCCC` (configuration not stated), for which the T/C (endpoint: mean survival time, dose: 100.0 mg/kg/injection, schedule: Q01DX001 (ip), vehicle: saline sonified) is 96 % of control; the T/C (endpoint: mean survival time, dose: 200.0 mg/kg/injection, schedule: Q01DX001 (ip), vehicle: saline sonified) is 102 % of control; the T/C (endpoint: mean survival time, dose: 400.0 mg/kg/injection, schedule: Q01DX001 (ip), vehicle: saline sonified) is 108 % of control.

For the compound `O=Cc1c[nH]c2ncccc12`, the T/C is 98 % of control under setting [13], 94 % of control under setting [14] and 98 % of control under setting [15].

As for `CC(=O)Oc1ccc(N2C(=O)C=CC2=O)cc1`, the T/C (endpoint: mean survival time, dose: 12.5 mg/kg/injection, schedule: Q04DX003 (ip), vehicle: Klucel (hydroxypropylcellulose) (HPC)) was 96 % of control.

Regarding `CC(=O)OC1OC(=O)C(C)(C(C)=O)C1C` (configuration not stated), the T/C is 103 % of control (endpoint: median survival time, dose: 2.5 mg/kg/injection, schedule: Q01DX009 (ip), vehicle: distilled water + alcohol); 101 % of control (endpoint: median survival time, dose: 5.0 mg/kg/injection, schedule: Q01DX009 (ip), vehicle: distilled water + alcohol); 104 % of control (endpoint: median survival time, dose: 10.0 mg/kg/injection, schedule: Q01DX009 (ip), vehicle: distilled water + alcohol); 103 % of control (endpoint: median survival time, dose: 20.0 mg/kg/injection, schedule: Q01DX009 (ip), vehicle: distilled water + alcohol).

For `OCCOc1ccc(Cl)cc1`, the T/C is, setting by setting: under setting [2], 104 % of control; under setting [13], 96 % of control; under setting [4], 100 % of control; under setting [14], 96 % of control; under setting [15], 103 % of control.

For `OCC1OC(n2cc(I)c3c(Cl)ncnc32)C(O)C1O` (configuration not stated), the T/C by setting is: under setting [12], 98 % of control; (endpoint: mean survival time, dose: 200.0 mg/kg/injection, schedule: Q01DX001 (ip), vehicle: saline) 110 % of control; (endpoint: mean survival time, dose: 400.0 mg/kg/injection, schedule: Q01DX001 (ip), vehicle: saline) 110 % of control.

As to `CC1=CC(=O)OC1CC(=O)O` (configuration not stated), the T/C by setting is: (endpoint: mean survival time, dose: 50.0 mg/kg/injection, schedule: Q01DX009 (ip), vehicle: saline) 97 % of control; (endpoint: mean survival time, dose: 100.0 mg/kg/injection, schedule: Q01DX009 (ip), vehicle: saline) 97 % of control; (endpoint: mean survival time, dose: 200.0 mg/kg/injection, schedule: Q01DX009 (ip), vehicle: saline) 103 % of control.

`CCCC/C=C/C1CCCCC1C` (configuration not stated): the T/C is 100 % of control under setting [10], 104 % of control under setting [2] and 108 % of control under setting [4].

As to `O=c1[nH]ccn1C1CCCCC1`, the T/C (endpoint: mean survival time, dose: 50.0 mg/kg/injection, schedule: Q01DX001 (ip), vehicle: other) is 100 % of control; the T/C (endpoint: mean survival time, dose: 100.0 mg/kg/injection, schedule: Q01DX001 (ip), vehicle: other) is 96 % of control and 97 % of control; the T/C (endpoint: mean survival time, dose: 200.0 mg/kg/injection, schedule: Q01DX001 (ip), vehicle: other) was 97 % of control and 100 % of control.

For the compound `Cc1o[nH]c(=O)c1C`, the T/C runs as follows: under setting [2], 96 % of control; under setting [4], 98 % of control; under setting [6], 98 % of control.

Take `Cc1cccc(Cl)c1NC1=NCCO1`: the T/C (endpoint: mean survival time, dose: 6.25 mg/kg/injection, schedule: Q04DX003 (ip), vehicle: saline with Tween-80) is 100 % of control; the T/C (endpoint: mean survival time, dose: 12.5 mg/kg/injection, schedule: Q04DX003 (ip), vehicle: saline with Tween-80) was 100 % of control; the T/C under setting [9] is 111 % of control.

`Nc1ccccc1Sc1ccc2c3c(cccc13)C(=O)N(c1ccccc1)C2=O`: the T/C (endpoint: mean survival time, dose: 25.0 mg/kg/injection, schedule: Q04DX002 (ip), vehicle: saline with Tween-80) is 95 % of control; the T/C (endpoint: mean survival time, dose: 50.0 mg/kg/injection, schedule: Q04DX002 (ip), vehicle: saline with Tween-80) is 98 % of control; the T/C under setting [7] is 87 % of control.

`CC1(C)N=C(N)N=C(N)N1c1cccc(/C=C/C=C/c2cccc([N+](=O)[O-])c2)c1`: the T/C under setting [9] is 95 % of control, the T/C under setting [11] is 91 % of control and the T/C under setting [13] is 89 % of control.

With `O=C1C=C(C2CCCCC2)C(=O)c2ccccc21`, the T/C is 88 % of control under setting [2]; 98 % of control under setting [13]; 91 % of control under setting [4]; 92 % of control under setting [14]; 95 % of control under setting [6]; 95 % of control under setting [15].

In the case of `Nc1ncnc2c1c(C(=O)NO)cn2C1OC(CO)C(O)C1O` (configuration not stated), under “endpoint: mean survival time, dose: 50.0 mg/kg/injection, schedule: Q01DX001 (ip), vehicle: water”, the T/C is 170 % of control.

Take `O=C1NC(=O)/C(=C/C=C/c2ccccc2)S1`: the T/C reads like this: (endpoint: mean survival time, dose: 12.5 mg/kg/injection, schedule: Q01DX009 (ip), vehicle: saline with Tween-80) 94 % of control and 101 % of control; under setting [8], 95 % of control and 109 % of control; under setting [10], 97 % of control and 101 % of control; under setting [2], 98 % of control and 101 % of control; under setting [4], 95 % of control and 103 % of control; under setting [6], 104 % of control.

As for `C=CCCCCCCCCC(=O)N(CCOC)CCOC`, the T/C runs as follows: under setting [13], 93 % of control; under setting [14], 94 % of control; under setting [15], 98 % of control.

Take `CC1(C(=O)c2ccccc2)OC1c1ccccc1` (configuration not stated): the T/C by setting is: (endpoint: mean survival time, dose: 100.0 mg/kg/injection, schedule: Q04DX003 (ip), vehicle: acetone) 103 % of control; (endpoint: mean survival time, dose: 200.0 mg/kg/injection, schedule: Q04DX003 (ip), vehicle: acetone) 103 % of control; (endpoint: mean survival time, dose: 400.0 mg/kg/injection, schedule: Q04DX003 (ip), vehicle: acetone) 98 % of control.

As for `NC(=O)c1ccc(Cl)c(Cl)c1`, the T/C is, setting by setting: under setting [2], 103 % of control; under setting [4], 103 % of control.

Take `CC1NC1(c1ccccc1)n1ccnc1` (configuration not stated): the T/C by setting is: (endpoint: mean survival time, dose: 12.5 mg/kg/injection, schedule: Q01DX009 (ip), vehicle: water) 95 % of control; (endpoint: mean survival time, dose: 25.0 mg/kg/injection, schedule: Q01DX009 (ip), vehicle: water) 99 % of control; (endpoint: mean survival time, dose: 50.0 mg/kg/injection, schedule: Q01DX009 (ip), vehicle: water) 99 % of control; (endpoint: mean survival time, dose: 100.0 mg/kg/injection, schedule: Q01DX009 (ip), vehicle: water) 103 % of control; (endpoint: mean survival time, dose: 200.0 mg/kg/injection, schedule: Q01DX009 (ip), vehicle: water) 90 % of control.

Take `COc1ccc(/C=N/NC(=O)CNC(=O)Nc2ccc(F)cc2)cc1OC`: the T/C is 96 % of control under setting [10], 92 % of control under setting [2] and 92 % of control under setting [4].

On to `C/C(=N/NC(=O)c1ccccc1)c1ccc(Cl)cc1Cl`, for which, under “endpoint: mean survival time, dose: 50.0 mg/kg/injection, schedule: Q01DX009 (ip), vehicle: Klucel (hydroxypropylcellulose) (HPC)”, the T/C is 89 % of control.

`CCCCNC(C)(C)C(SS)c1ccc(Cl)cc1` (configuration not stated): the T/C (endpoint: mean survival time, dose: 100.0 mg/kg/injection, schedule: Q04DX003 (ip), vehicle: saline) is 94 % of control and the T/C (endpoint: mean survival time, dose: 200.0 mg/kg/injection, schedule: Q04DX003 (ip), vehicle: saline) was 105 % of control.

`N/C(=N/N=C/c1ccco1)N[N+](=O)[O-]`: the T/C (endpoint: mean survival time, dose: 50.0 mg/kg/injection, schedule: Q01DX001 (ip), vehicle: Klucel (hydroxypropylcellulose) (HPC)) is 97 % of control; the T/C (endpoint: mean survival time, dose: 100.0 mg/kg/injection, schedule: Q01DX001 (ip), vehicle: Klucel (hydroxypropylcellulose) (HPC)) was 94 % of control; the T/C (endpoint: mean survival time, dose: 200.0 mg/kg/injection, schedule: Q01DX001 (ip), vehicle: Klucel (hydroxypropylcellulose) (HPC)) is 97 % of control.

These data come from PubChem BioAssay AID256 (DTP/NCI, 2004).
